Assay results published in patent publication US20260297095A1, “NOVEL PYRROLOTRIAZINE DERIVATIVE AND USE THEREOF” (Pelemed Co., Ltd., priority 2024, published 2026).

Legend:
YES1 kinase = YES1 kinase (Homo sapiens, UniProt P07947); experiment: YES1 kinase inhibition, ADP Glo assay (Promega); type: biochemical; conditions: for inhibition at 0.01 µM: compound 10 nM, read-out: YES1 enzyme, % inhibition, 10 nM; for inhibition at 0.1 µM: compound 100 nM, read-out: YES1 enzyme, % inhibition, 100 nM; for IC50: class symbols, read-out: YES1 enzyme, IC50
Method in brief: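 ADP-Glo luminescence after a 40 min room-temperature reaction of YES1 with ATP and substrate (buffer with MnCl2 and DTT; 10 min compound preincubation) was used as readout. Percent inhibition at 1, 10 and 100 nM compound was calculated relative to negative control after background subtraction, and IC50 values derived.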

[1] = test system: KYSE-70 esophageal cancer cell line; experiment: Cell growth inhibition of KYSE-70 (Sulforhodamine B); type: cell-based; conditions: Homo sapiens; KYSE-70, 72 hours; read-out: KYSE70 GI50
Method in brief: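 KYSE-70 cells (YES1-amplified) in RPMI-1640 with 10% FBS were seeded 24 h before treatment with compound at 0.0046–10 µM final. After 72 h, cells were TCA-fixed and stained with sulforhodamine B, with absorbance read at 510 nm. GI50 was derived with a time-zero plate set to 0% and the vehicle control to 100%, in duplicate tests.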

Sequence of YES1 kinase (P07947 whole entry): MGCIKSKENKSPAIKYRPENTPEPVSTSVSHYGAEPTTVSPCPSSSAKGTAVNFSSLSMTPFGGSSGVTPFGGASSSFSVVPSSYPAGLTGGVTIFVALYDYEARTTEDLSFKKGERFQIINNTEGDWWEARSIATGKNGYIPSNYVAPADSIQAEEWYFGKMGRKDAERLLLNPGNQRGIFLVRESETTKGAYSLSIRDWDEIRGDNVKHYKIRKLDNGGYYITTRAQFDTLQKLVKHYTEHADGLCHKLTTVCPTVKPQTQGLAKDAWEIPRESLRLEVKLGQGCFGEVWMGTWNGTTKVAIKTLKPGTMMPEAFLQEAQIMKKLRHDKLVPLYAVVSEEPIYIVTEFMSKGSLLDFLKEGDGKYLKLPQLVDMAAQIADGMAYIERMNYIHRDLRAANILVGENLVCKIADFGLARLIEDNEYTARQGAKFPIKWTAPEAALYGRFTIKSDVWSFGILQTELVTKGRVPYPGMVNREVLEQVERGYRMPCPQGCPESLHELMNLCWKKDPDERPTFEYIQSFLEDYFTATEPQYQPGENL

| inhibition at 0.01 µM (YES1 kinase) [%] | inhibition at 0.1 µM (YES1 kinase) [%] | GI50 [1] [nM] | IC50 (YES1 kinase) [nM] | inhibition at 0.001 µM (YES1 kinase; compound 1 nM, read-out: YES1 enzyme, % inhibition, 1 nM) [%] | SMILES | YES1 kinase inhibition at 1 nM (in words) (YES1 kinase; compound 1 nM) |
| --- | --- | --- | --- | --- | --- | --- |
| 31 | 29 | 1000 to 10000 | – | – | COc1cc(-c2cc(-c3ccc(N(C)C)c(F)c3)n3ncnc(N)c23)ccc1NC(=O)OC(C)(C)C [Example 4, tert-butyl (4-(4-amino-7-(4-(dimethylamino)-3-fluorophenyl)pyrrolo[2,1-f][1,2,4]triazin-5-yl)-2-methoxyphenyl)carbamate] | – |
| – | – | 100 to 1000 | ≤ 100 | – | COc1cc(-c2cc(N3CCC(N)CC3)n3ncnc(N)c23)ccc1NC(=O)c1ccco1 [Example 137, N-(4-(4-amino-7-(4-aminopiperidin-1-yl)pyrrolo[2,1-f][1,2,4]triazin-5-yl)-2-methoxyphenyl)furan-2-carboxamide] | – |
| 70 | 96 | ≤ 100 | – | – | COc1cc(-c2cc(N3CCC(N)C(C)C3)n3ncnc(N)c23)ccc1NC(=O)OC(C)(C)C (centres unmarked) [Example 48, tert-butyl (4-(4-amino-7-(4-amino-3-methylpiperidin-1-yl)pyrrolo[2,1-f][1,2,4]triazin-5-yl)-2-methoxyphenyl)carbamate] | – |
| 64 | 90 | ≤ 100 | – | – | CN(C)C1CCN(c2cc(-c3ccc(Oc4ccccc4)cc3)c3c(N)ncnn23)CC1 [Example 136, 7-(4-(dimethylamino)piperidin-1-yl)-5-(4-phenoxyphenyl)pyrrolo[2,1-f][1,2,4]triazin-4-amine] | – |
| 61 | 80 | ≤ 100 | ≤ 100 | – | CN[C@@H]1CCN(c2cc(-c3ccc(NC(=O)OC(C)(C)C)c(OC)c3)c3c(N)ncnn23)C[C@@H]1F [Example 87, tert-butyl (4-(4-amino-7-((3S,4R)-3-fluoro-4-(methylamino)piperidin-1-yl)pyrrolo[2,1-f][1,2,4]triazin-5-yl)-2-methoxyphenyl)carbamate] | – |
| 65 | 86 | 100 to 1000 | – | – | COc1cc(-c2cc(N3CCC(N)CC3)n3ncnc(N)c23)ccc1NC(=O)OC(C)(C)C [Example 12, tert-butyl (4-(4-amino-7-(4-aminopiperidin-1-yl)pyrrolo[2,1-f][1,2,4]triazin-5-yl)-2-methoxyphenyl)carbamate] | – |
| 40 | 76 | ≤ 100 | – | – | COc1cc(-c2cc(N3CCC4(CC3)CNC4=O)n3ncnc(N)c23)ccc1NC(=O)OC(C)(C)C [Example 55, tert-butyl (4-(4-amino-7-(1-oxo-2,7-diazaspiro[3.5]nonan-7-yl)pyrrolo[2,1-f][1,2,4]triazin-5-yl)-2-methoxyphenyl)carbamate] | – |
| 71 | 90 | ≤ 100 | – | – | CNC1CCN(CCc2cc(-c3ccc(NC(=O)OC(C)(C)C)c(OC)c3)c3c(N)ncnn23)CC1 [Example 99, tert-butyl (4-(4-amino-7-(2-(4-(methylamino)piperidin-1-yl)ethyl)pyrrolo[2,1-f][1,2,4]triazin-5-yl)-2-methoxyphenyl)carbamate] | – |
| 5 | 43 | 1000 to 10000 | – | – | COc1cc(-c2cc(N3CCC[C@@H](CN(C)C)C3)n3ncnc(N)c23)ccc1NC(=O)OC(C)(C)C [Example 40, tert-butyl (S)-(4-(4-amino-7-(3-((dimethylamino)methyl)piperidin-1-yl)pyrrolo[2,1-f][1,2,4]triazin-5-yl)-2-methoxyphenyl)carbamate] | – |
| 36 | 70 | 100 to 1000 | – | – | COc1cc(-c2cc(N3CCC(CN(C)C)C3)n3ncnc(N)c23)ccc1NC(=O)OC(C)(C)C (centres unmarked) [Example 20, tert-butyl (4-(4-amino-7-(3-((dimethylamino)methyl)pyrrolidin-1-yl)pyrrolo[2,1-f][1,2,4]triazin-5-yl)-2-methoxyphenyl)carbamate] | – |
| 52 | 77 | 100 to 1000 | – | – | COc1cc(-c2cc(N3CC[C@@H](N)[C@@H](F)C3)n3ncnc(N)c23)ccc1NC(=O)OC(C)(C)C [Example 46, tert-butyl (4-(4-amino-7-((3S,4R)-4-amino-3-fluoropiperidin-1-yl)pyrrolo[2,1-f][1,2,4]triazin-5-yl)-2-methoxyphenyl)carbamate] | – |
| 39 | – | 100 to 1000 | – | 11 | COc1cc(-c2cc(N3CCC(CO)CC3)n3ncnc(N)c23)ccc1NC(=O)OC(C)(C)C [Example 102, tert-butyl (4-(4-amino-7-(4-(hydroxymethyl)piperidin-1-yl)pyrrolo[2,1-f][1,2,4]triazin-5-yl)-2-methoxyphenyl)carbamate] | could be inhibited even at a low concentration of 1 nM |
| 20 | 60 | ≤ 100 | ≤ 100 | – | COc1cc(-c2cc(N3CCC4(CCC(=O)N4)CC3)n3ncnc(N)c23)ccc1NC(=O)OC(C)(C)C [Example 54, tert-butyl (4-(4-amino-7-(2-oxo-1,8-diazaspiro[4.5]decan-8-yl)pyrrolo[2,1-f][1,2,4]triazin-5-yl)-2-methoxyphenyl)carbamate] | – |
| 44 | 49 | > 10000 | – | – | COc1cc(-c2cc(-c3ccc(N(C)C)c(C)c3)n3ncnc(N)c23)ccc1NC(=O)OC(C)(C)C [Example 3, tert-butyl (4-(4-amino-7-(4-(dimethylamino)-3-methylphenyl)pyrrolo[2,1-f][1,2,4]triazin-5-yl)-2-methoxyphenyl)carbamate] | – |
| 41 | 85 | 1000 to 10000 | – | – | COc1cc(-c2cc(N3CCN(CCN(C)C)CC3)n3ncnc(N)c23)ccc1NC(=O)OC(C)(C)C [Example 28, tert-butyl (4-(4-amino-7-(4-(2-(dimethylamino)ethyl)piperazin-1-yl)pyrrolo[2,1-f][1,2,4]triazin-5-yl)-2-methoxyphenyl)carbamate] | – |
| – | – | 100 to 1000 | ≤ 100 | – | COc1cc(-c2cc(N3CCC(N)CC3)n3ncnc(N)c23)ccc1NC(=O)OC(C)(C)CF [Example 65, 1-fluoro-2-methylpropan-2-yl (4-(4-amino-7-(4-aminopiperidin-1-yl)pyrrolo[2,1-f][1,2,4]triazin-5-yl)-2-methoxyphenyl)carbamate] | – |
| 70 | 92 | ≤ 100 | ≤ 100 | – | CNC1CCN(c2c(F)c(-c3ccc(NC(=O)OC(C)(C)C)c(OC)c3)c3c(N)ncnn23)CC1 [Example 129, tert-butyl (4-(4-amino-6-fluoro-7-(4-(methylamino)piperidin-1-yl)pyrrolo[2,1-f][1,2,4]triazin-5-yl)-2-methoxyphenyl)carbamate] | – |
| 58 | 87 | ≤ 100 | – | – | COc1cc(-c2cc(N3CCC4(CCCN4)CC3)n3ncnc(N)c23)ccc1NC(=O)OC(C)(C)C [Example 23, tert-butyl (4-(4-amino-7-(1,8-diazaspiro[4.5]decan-8-yl)pyrrolo[2,1-f][1,2,4]triazin-5-yl)-2-methoxyphenyl)carbamate] | – |
| 57 | 89 | ≤ 100 | – | – | COc1cc(-c2cc(N3CC4(CCN(C)C4)C3)n3ncnc(N)c23)ccc1NC(=O)OC(C)(C)C [Example 39, tert-butyl (4-(4-amino-7-(6-methyl-2,6-diazaspiro[3.4]octan-2-yl)pyrrolo[2,1-f][1,2,4]triazin-5-yl)-2-methoxyphenyl)carbamate] | – |
